In patent US7208518B2, “Substituted furochromene compounds of antiinflammatory action” (GlaxoSmithKline Istrazivacki Centar Zagreb D.O.O., priority 2003, dated 2007):

What was measured:
[1] = tested on: hyperreactivity of the bronchi induced by methacholine; test: Hyperreactivity of the bronchi, pletismometric method, rats; type: in vivo; conditions: i.p. 10 mg/kg, totally for 4 days, methacholine concentration of 50 mg/mL, measured over 24 hours after the provocative test
Description: (§1) Hyperreactivity of the Bronchi
(§2) The hyperreactivity of the bronchi was measured by pletismometric method (Buxco pletismometer), which is based on pressure difference and was performed in conscious and non-bound animals. The action of the compounds on the hyperreactivity of the bronchi induced by methacholine (Sigma) in aerosol form in different concentrations was expressed by the percentage of the increase of the enhanced pause value (PENH) above the base line, which was recorded without a cholinergic stimulant.
Compound 36 was used i.p. in rats in a dosis of 10 mg/kg within a period beginning two days prior to the provocative test to the end of test, totally for 4 days. The hyperreactivity of the bronchi was measured by pletismometric method over 24 hours after the provocative test.

[2] = tested on: hyperreactivity of the bronchi induced by methacholine; test: Hyperreactivity of the bronchi, pletismometric method, mice; type: in vivo; conditions: i.p. 10 mg/kg, totally for 4 days, methacholine concentration of 25 mg/mL, measured over 24 hours after the provocative test
Description: as §1, §2
Compound 6 was used i.p. in mice in a dosis of 10 mg/kg within a period beginning two days prior to provocative test to the end of the test, totally for 4 days. The hyperreactivity of the bronchi was measured by pletismometric method over 24 hours after the provocative test.

Row | Compound | hyperreactivity of respiratory airways (PENH) in relation to the positive control group [1] | hyperreactivity of respiratory airways (PENH) in relation to the positive control group [2]
1 | O=c1oc2cc(Cl)ccc2c(O)c1C1c2c(c3ccc(Cl)cc3oc2=O)OC1O (centres unmarked) [Compound 36, 2-Hydroxy-3-(4-hydroxy-7-chloro-2-oxo-2H-chromene-3-yl)-7-chloro-2,3-dihydro-4H-furo[3,2-c]chromene-4-one] | statistically significantly (t-test, p<0.01) decreased | –
2 | Cc1cc(C)c2c(O)c(C3c4c(c5c(C)cc(C)cc5oc4=O)OC3O)c(=O)oc2c1 (centres unmarked) [Compound 6, 2-Hydroxy-3-(4-hydroxy-5,7-dimethyl-2-oxo-2H-chromene-3-yl)-7,9-dimethyl-2,3-dihydro-4H-furo[3,2-c]chromene-4-one] | – | statistically significantly (t-test, p<0.05) decreased
